Read-outs that look alike come from different tables or passages of the source.
Columns and labels:
human GLP-1 = biological target: T1, human GLP-1 (Homo sapiens, UniProt P43220); assay: h-GLP-1 activity assay (Cisbio cAMP Gs dynamic kit, HTRF); type: cell-based; conditions: HEK293 cells with stable expression of human GLP-1, relative EC50, 10 nM human GLP-1 = 100% response
T1 construct: expressed in transfected cells
Protocol: Human GLP-1 agonizing activity was detected in HEK293 cells with stable expression of human GLP-1 by Cisbio cAMP Gs dynamic kit (Catalog #62AM4PEC) according to manufacturer's protocol. Briefly, cells were collected and resuspended in assay buffer containing 0.1% BSA and 0.5 mM of IBMX at concentration to 2.5×10^5 cells/mL. Two μL 5× compound solution and 8 μL cell suspension were added to each well of low-volume 384 white assay plate. After 30 min incubation at 37° C., 5 μL cAMP-d2 working solution and 5 μL anti-cAMP antibody-cryptate were added to each well, and incubate at room temperature for 1 hr. Series dilution of cAMP was used as standard. Human GLP-1 (7-37) was used as positive control and 10 nM human GLP-1 was set as 100% response. HTRF signals were read at 665 and 615 nm with EnVision plate reader and calculated cAMP concentration by intrapolation to the standard curve. The EC50 value of the tested compounds was calculated by fitting the dose response curve using a 4-parameter non-linear regression routine and relative EC50 was presented in Table S.

[1] = Pharmacokinetics in fasted SD rats (PO and IV); type: in vivo; conditions: rat, plasma; for clearance: read-out: IV parameters CL; for bioavailability: read-out: PO parameters F (%)
Protocol: Compounds of the present application were formulated in 0.50% MC, and administered via oral gavage (PO) at the dosages of 5 or 10 mg per kilogram body weight, or formulated in 5% DMSO:15% Solutol 80% (SBECD), and administered via intravenous injection (IV) at the dosages of 1 mg per kilogram body weight, in fasted SD rats. Plasma samples were collected at 0.25, 0.5, 1, 2, 4, 6, 8, and 24 hours post dosing (PO); and were collected at 0.083, 0.25, 0.5, 1, 2, 4, 6, 8, and 24 hours post dosing (IV). Compound concentration was determined by LC-MS and pharmacokinetics parameters were calculated by WinNonlin 8.2 using Non-Compartmental Analysis model.

[2] = Liver microsome stability, human; type: in vitro ADME; conditions: human liver microsomes, NADPH, 37° C.
Protocol: (§1) Compounds of the present application was incubated with human or rat liver microsomes in the presence of NADPH at 37° C. The concentration of compound at pre-incubation and after 30 min incubation was quantified by LC-MS. The percentage of remaining compound was then calculated and indicative of microsome stability of each compound.

[3] = Liver microsome stability, rat; type: in vitro ADME; conditions: rat liver microsomes, NADPH, 37° C.
Protocol: as §1

[4] = IV 1 mg/kg, read-out: IV parameters AUC0-inf
[5] = PO 5 mg/kg, 0.50% MC, read-out: PO parameters AUC0-inf

T1 sequence (P43220 24-463): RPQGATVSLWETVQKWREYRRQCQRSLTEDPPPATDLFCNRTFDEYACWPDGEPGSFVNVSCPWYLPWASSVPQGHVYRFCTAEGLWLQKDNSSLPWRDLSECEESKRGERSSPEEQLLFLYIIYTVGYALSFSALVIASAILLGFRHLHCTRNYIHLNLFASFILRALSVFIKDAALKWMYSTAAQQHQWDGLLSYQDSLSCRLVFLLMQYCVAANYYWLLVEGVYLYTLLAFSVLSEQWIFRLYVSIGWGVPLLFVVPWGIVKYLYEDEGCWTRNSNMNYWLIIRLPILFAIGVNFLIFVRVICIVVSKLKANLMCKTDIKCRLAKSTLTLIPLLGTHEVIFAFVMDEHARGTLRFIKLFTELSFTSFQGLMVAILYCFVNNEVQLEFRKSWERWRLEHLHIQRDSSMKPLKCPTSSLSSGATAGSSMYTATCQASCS

Row | Compound | EC50 (human GLP-1) [µM] | AUC(0-inf) [1, 4] [µg·h/mL] | clearance ([1]; IV 1 mg/kg) [L/h/kg] | AUC(0-inf) [1, 5] [µg·h/mL] | bioavailability ([1]; PO 5 mg/kg) [%] | Human (% remaining @ 30 min) [2] [%] | Rat (% remaining @ 30 min) [3] [%]
1 | C[C@]1(c2ccc(Cl)cc2F)Oc2cccc(-c3ccc(Cc4nc5ccc(C(=O)O)cc5n4C[C@@H]4CCO4)cc3)c2O1 (single isomer, unassigned) [Compound 19] | < 0.02 | 3.38 | 0.33 | 4.41 | 26.1 | – | –
2 | O=C(O)c1ccc2nc(C[C@H]3CC[C@H](c4cccc(OCc5ccc(Cl)cc5F)n4)CO3)n(Cc3cncs3)c2c1 (single isomer, unassigned) [Compound 28] | < 0.02 | 0.588 | 1.73 | 0.526 | 21.7 | – | –
3 | C[C@@]1(c2ccc(Cl)cn2)Oc2cccc(C3=CC[C@H](Cc4nc5ccc(C(=O)O)cc5n4C[C@@H]4CCO4)OC3)c2O1 (single isomer, unassigned) [Compound 78] | < 0.02 | – | – | – | – | >75 | >75
4 | C[C@@]1(c2ccc(Cl)cc2F)Oc2cccc(C3=CC[C@@H](Cc4nc5ccc(C(=O)O)cc5n4C[C@@H]4CCO4)OC3)c2O1 (single isomer, unassigned) [Compound 100] | < 0.02 | 1.76 | 0.582 | 3.19 | 36.3 | >75 | >75
5 | C[C@]1(c2ccc(Cl)cc2F)Oc2cccc(C3=CC[C@@H](Cc4nc5ccc(C(=O)O)nc5n4C[C@@H]4CCO4)OC3)c2O1 (single isomer, unassigned) [Compound 108] | < 0.02 | – | – | – | – | >75 | >75
6 | C[C@]1(c2ccc(Cl)cc2F)Oc2cccc(C3=CC[C@@H](Cc4nc5c(F)cc(C(=O)O)cc5n4C[C@@H]4CCO4)OC3)c2O1 (single isomer, unassigned) [Compound 110] | < 0.02 | – | – | – | – | >75 | >75
7 | C[C@]1(c2ccc(Cl)cn2)Oc2cccc(C3=CC[C@H](Cc4nc5c(F)cc(C(=O)O)cc5n4C[C@@H]4CCO4)OC3)c2O1 (single isomer, unassigned) [Compound 118] | < 0.02 | – | – | – | – | >75 | >75
8 | O=C(O)c1ccc2nc(CC34CCC(c5ccnc(OCc6ccc(Cl)cc6F)n5)(CC3)CO4)n(C[C@@H]3CCO3)c2c1 [Compound 35, (S)-2-((4-(2-((4-chloro-2-fluorobenzyl)oxy)pyrimidin-4-yl)-2-oxabicyclo[2.2.2]octan-1-yl)methyl)-1-(oxetan-2-ylmethyl)-1H-benzo[d]imidazole-6-carboxylic acid] | > 0.1 | – | – | – | – | – | –
9 | N#Cc1ccc(COc2cccc(C34CCC(Cc5nc6ccc(C(=O)O)cc6n5C[C@@H]5CCO5)(CC3)OC4)n2)c(F)c1 [Compound 36, (S)-2-((4-(6-((4-cyano-2-fluorobenzyl)oxy)pyridin-2-yl)-2-oxabicyclo[2.2.2]octan-1-yl)methyl)-1-(oxetan-2-ylmethyl)-1H-benzo[d]imidazole-6-carboxylic acid] | > 0.1 | – | – | – | – | – | –
10 | N#Cc1ccc(COc2cccc(N3CCC(Oc4nc5ccc(C(=O)O)cc5n4C[C@@H]4CCO4)CC3)n2)c(F)c1 [Compound 80, (S)-2-((1-(6-((4-cyano-2-fluorobenzyl)oxy)pyridin-2-yl)piperidin-4-yl)oxy)-1-(oxetan-2-ylmethyl)-1H-benzo[d]imidazole-6-carboxylic acid] | > 0.1 | – | – | – | – | – | –
11 | O=C(O)c1ccc2nc(CCN3CC(c4cccc(OCc5ccc(Cl)cc5F)n4)C3)n(C[C@@H]3CCO3)c2c1 [Compound 82, (S)-2-(2-(3-(6-((4-chloro-2-fluorobenzyl)oxy)pyridin-2-yl)azetidin-1-yl)ethyl)-1-(oxetan-2-ylmethyl)-1H-benzo[d]imidazole-6-carboxylic acid] | 0.02 to 0.1 | – | – | – | – | – | –

From US20220348564A1, “PHENYL-[1,3]DIOXOLO[4,5-C]PYRIDINYL-PHENYL-, PHENYL-[1,3]DIOXOLO[4,5-C]PYRIDINYL-HETEROARYL-, OR PHENYL-(1,3)DIOXO[4,5-C]PYRIDINYL-PIPERIDINYL-METHYL-OXETANYLMETHYL-1H-BENZO[D]IMIDAZOLE-CARBOXYLIC ACID DERIVATIVES AND METHODS OF USING SAME” (Eccogene (Shanghai) Co., Ltd., priority 2021, published 2022)
